Source: patent US20250059182A1, “SOS1 INHIBITORS” (Mirati Therapeutics, Inc., priority 2021, published 2025)
Like-named read-outs stand apart in the source and are kept apart here.

Legend:
[1] = target: T1, recombinant human SOS1 polypeptide (amino acids 560-1049) (Homo sapiens, UniProt Q07889); test: HTRF displacement assay: inhibition of labeled tracer binding to SOS1; details: Table A, Morrison equation for competitive binding
T1 construct: corresponding to amino acids 560-1049, expressed in E. Coli; made in house; host or cells: E. coli
T1 sequence (Q07889 560-1049): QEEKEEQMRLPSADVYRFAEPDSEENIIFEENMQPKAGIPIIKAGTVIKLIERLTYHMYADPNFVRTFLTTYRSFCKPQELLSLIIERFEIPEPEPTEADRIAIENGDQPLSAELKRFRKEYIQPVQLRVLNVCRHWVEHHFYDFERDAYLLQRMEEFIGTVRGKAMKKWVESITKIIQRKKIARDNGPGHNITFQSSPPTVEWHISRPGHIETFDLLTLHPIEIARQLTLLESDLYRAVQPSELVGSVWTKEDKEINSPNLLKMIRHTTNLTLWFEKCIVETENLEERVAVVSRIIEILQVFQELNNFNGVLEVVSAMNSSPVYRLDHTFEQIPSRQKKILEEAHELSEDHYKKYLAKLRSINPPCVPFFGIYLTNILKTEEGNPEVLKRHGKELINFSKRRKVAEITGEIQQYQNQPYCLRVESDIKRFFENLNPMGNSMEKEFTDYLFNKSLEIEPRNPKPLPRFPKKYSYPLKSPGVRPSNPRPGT

pERK in MKN1 cells = test: pERK inhibition, In-Cell Western (LI-COR Odyssey), MKN1 cells; type: cell-based; details: MKN1 or H358 cells (table does not say which), 0.5-1 hour incubation, read-out: IC50 (nM), pERK inhibition
Method: This Example illustrates that exemplary compounds of the present invention prevent KRas-mediated GTP nucleotide exchange mediated by SOS1 to inhibit KRas activity thereby inhibiting the generation of the downstream effector pERK.
MKN1 cells (15,000/w) or H358 (30,000/w) were seeded in a black clear flat bottom 96-well cell culture plate (Corning, #3904) and incubated at 37° C. overnight. Assay day 1, cells were dosed with compounds of Formula (I) with a 10 μm starting concentration and serially diluted 3× for a total of 9 concentrations. The cells were incubated for approximately 0.5-1 hour with the compounds solubilized in DMSO at 37° C. Cells were immediately fixed by adding 50 μL of 4% formaldehyde to all wells in a fume hood and the plates were incubated for 20 minutes at room temperature. The formaldehyde was discarded from the plates and 150 μL of ice-cold methanol was added to permeabilize the cells for 10 minutes at −20° C. The methanol was discarded from each of the plates and any liquid remaining in the plate by tapping the plate against paper towels. Cells were then blocked with 150 μL of Odyssey blocking buffer (LI-COR Biosciences #927-50010) using 0.05% Tween for 1 hour at room temperature on a shaker. The blocking buffer was discarded and 50 μL of primary antibodies pERK (cell signaling Technology #9101L; Rabbit, 1:500) and GapDH (Millipore #MAB34; Mouse, 1:5000) diluted in Odyssey blocking buffer was added. The plates were incubated overnight at 4° C. on a shaker.
On Assay day 2, the primary antibody solution was removed. Each plate was washed 3× times with 150 μL of 1×PBST (PBS+0.1% Tween 20) and incubated with 50 μL of secondary antibodies: Anti-Rabbit (LI-COR Biosciences #926-32211) and Anti-Mouse (LI-COR Biosciences #68070) at 1:800 dilution in Odyssey blocking buffer with Tween at room temperature on a shaker for 2 hours (protected from light). The secondary antibody solution as removed and each plate was washed with PBST 3× times. Any liquid remaining was discarded and the plate was imaged using the Licor Odyssey machine according to the manufacturer's instruction, using a set focus length at 3 mm and both 800 nm and 700 nm filters. The GAPDH normalized scan values for each well were divided by the average of vehicle wells to get the % of pERK inhibition. The IC50 values were then calculated with the Graph pad Prism software.

SMILES | Ki [1] | IC50 (pERK in MKN1 cells; Homo sapiens, MKN-1, Table B) | IC50 (pERK in MKN1 cells; Table B)
Cc1c(C#N)cccc1[C@@H](C)Nc1nnc(C)c2cnc(N3C[C@H]4CCCN[C@H]4C3)cc12 (single isomer, unassigned) [Example 6-3] | 0.992 nM | 73 nM | 
Cc1c(C#N)cccc1[C@@H](C)Nc1nnc(C)c2cnc(N3C[C@@H]4CCCN[C@@H]4C3)cc12 (single isomer, unassigned) [Example 6-4] | 2.74 nM | 194 nM | 
Cc1c(C#N)cccc1[C@@H](C)Nc1nnc(C)c2cnc(N3C[C@H]4CCCN(C)[C@H]4C3)cc12 (single isomer, unassigned) [Example 6-5] | 1.12 nM | 85.2 nM | 
Cc1c(C#N)cccc1[C@@H](C)Nc1nnc(C)c2cnc(N3C[C@@H]4CCCN(C)[C@@H]4C3)cc12 (single isomer, unassigned) [Example 6-6] | 1.36 nM | 80.6 nM | 
Cc1c(C#N)cccc1[C@@H](C)Nc1nnc(C)c2cnc(N3C[C@@H]4[C@H]3CCN4C)cc12 (single isomer, unassigned) [Example 6-8] | 0.808 nM |  | 33.8 nM
Cc1c(C#N)cccc1[C@@H](C)Nc1nnc(C)c2cnc(N3C[C@H]4[C@@H]3CCN4C)cc12 (single isomer, unassigned) [Example 6-9] | 2.12 nM |  | 69.4 nM
Cc1c(C#N)cccc1[C@@H](C)Nc1nnc(C)c2cnc(N3CC[C@@H]4[C@H]3CN4C)cc12 (single isomer, unassigned) [Example 6-10] | 0.872 nM | 44.4 nM | 
Cc1c(C#N)cccc1[C@@H](C)Nc1nnc(C)c2cnc(N3CC[C@H]4[C@@H]3CN4C)cc12 (single isomer, unassigned) [Example 6-11] | 2.78 nM | 199 nM | 
Cc1c(C#N)cccc1[C@@H](C)Nc1nnc(C)c2cnc(N3C[C@H]4[C@@H]3CCN4C)cc12 (single isomer, unassigned) [Example 6-12] | 0.24 nM |  | 13.7 nM
Cc1c(C#N)cccc1[C@@H](C)Nc1nnc(C)c2cnc(N3C[C@@H]4[C@H]3CCN4C)cc12 (single isomer, unassigned) [Example 6-13] | 0.615 nM |  | 16.3 nM
Cc1c(C#N)cccc1[C@@H](C)Nc1nnc(C)c2cc(F)c(N3C[C@H]4[C@@H]3CCN4C)cc12 (single isomer, unassigned) [Example 9-1] | 1 nM | 15.5 nM | 
Cc1c(C#N)cccc1[C@@H](C)Nc1nnc(C)c2cc(F)c(N3C[C@@H]4[C@H]3CCN4C)cc12 (single isomer, unassigned) [Example 9-2] | 2 nM | 30 nM | 
CCN(c1cc2c(N[C@H](C)c3cccc(C#N)c3C)nnc(C)c2cn1)C1CCN(C)C1 (stereo in doubt) [Example 1-104, 3-((R)-1-((7-(ethyl((S)-1-methylpyrrolidin-3-yl)amino)-4-methylpyrido[3,4-d]pyridazin-1-yl)amino)ethyl)-2-methylbenzonitrile] | 0.901 nM |  | 75.5 nM
Cc1c(C#N)cccc1[C@@H](C)Nc1nnc(C)c2cnc(N3CC(C)(N4CCC4)C3)cc12 [Example 1-1, (R)-2-methyl-3-(1-((4-methyl-7-(3′-methyl-[1,3′-biazetidin]-1′-yl)pyrido[3,4-d]pyridazin-1-yl)amino)ethyl)benzonitrile] | 1.59 nM | 104 nM | 
CCN(CC)C1(C)CN(c2cc3c(N[C@H](C)c4cccc(C#N)c4C)nnc(C)c3cn2)C1 [Example 1-2, (R)-3-(1-((7-(3-(diethylamino)-3-methylazetidin-1-yl)-4-methylpyrido[3,4-d]pyridazin-1-yl)amino)ethyl)-2-methylbenzonitrile] | 2.22 nM | 126 nM | 
CN[C@H]1CCN(c2cc3c(N[C@H](C)c4cccc(C#N)c4C)nnc(C)c3cn2)C1 [Example 1-3, 2-methyl-3-((R)-1-((4-methyl-7-((S)-3-(methylamino)pyrrolidin-1-yl)pyrido[3,4-d]pyridazin-1-yl)amino)ethyl)benzonitrile] | 1.42 nM | 95.1 nM | 
Cc1c(C#N)cccc1[C@@H](C)Nc1nnc(C)c2cnc(N3CC(C)(N4CCCC4)C3)cc12 [Example 1-4, (R)-2-methyl-3-(1-((4-methyl-7-(3-methyl-3-(pyrrolidin-1-yl)azetidin-1-yl)pyrido[3,4-d]pyridazin-1-yl)amino)ethyl)benzonitrile] | 1.22 nM | 62.6 nM | 
Cc1c(C#N)cccc1[C@@H](C)Nc1nnc(C)c2cnc(N(C)[C@H]3CCN(C)C3)cc12 [Example 1-5, 2-methyl-3-((R)-1-((4-methyl-7-(methyl((S)-1-methylpyrrolidin-3-yl)amino)pyrido[3,4-d]pyridazin-1-yl)amino)ethyl)benzonitrile] | 0.683 nM | 57.2 nM | 
Cc1c(C#N)cccc1[C@@H](C)Nc1nnc(C)c2cnc(N(C)[C@@H]3CCN(C)C3)cc12 [Example 1-6, 2-methyl-3-((R)-1-((4-methyl-7-(methyl((R)-1-methylpyrrolidin-3-yl)amino)pyrido[3,4-d]pyridazin-1-yl)amino)ethyl)benzonitrile] | 1.56 nM | 41.6 nM | 
CCN1CC2(C1)CN(c1cc3c(N[C@H](C)c4cccc(C#N)c4C)nnc(C)c3cn1)C2 [Example 1-7, (R)-3-(1-((7-(6-ethyl-2,6-diazaspiro[3.3]heptan-2-yl)-4-methylpyrido[3,4-d]pyridazin-1-yl)amino)ethyl)-2-methylbenzonitrile] | 0.378 nM | 39.4 nM | 
Cc1c(C#N)cccc1[C@@H](C)Nc1nnc(C)c2cnc(N3CC[C@@H](N)C3)cc12 [Example 1-8, 3-((R)-1-((7-((R)-3-aminopyrrolidin-1-yl)-4-methylpyrido[3,4-d]pyridazin-1-yl)amino)ethyl)-2-methylbenzonitrile] | 1.54 nM | 274 nM | 
Cc1c(C#N)cccc1[C@@H](C)Nc1nnc(C)c2cnc(N3CC[C@H](N)C3)cc12 [Example 1-9, 3-((R)-1-((7-((S)-3-aminopyrrolidin-1-yl)-4-methylpyrido[3,4-d]pyridazin-1-yl)amino)ethyl)-2-methylbenzonitrile] | 1.66 nM | 396 nM | 
Cc1c(C#N)cccc1[C@@H](C)Nc1nnc(C)c2cnc(N3CC4(CNC4)C3)cc12 [Example 1-10, (R)-2-methyl-3-(1-((4-methyl-7-(2,6-diazaspiro[3.3]heptan-2-yl)pyrido[3,4-d]pyridazin-1-yl)amino)ethyl)benzonitrile] | 0.541 nM | 3280 nM | 
Cc1c(C#N)cccc1[C@@H](C)Nc1nnc(C)c2cnc(N3CCN(C)[C@@H](C)C3)cc12 [Example 1-11, 3-((R)-1-((7-((S)-3,4-dimethylpiperazin-1-yl)-4-methylpyrido[3,4-d]pyridazin-1-yl)amino)ethyl)-2-methylbenzonitrile] | 1.62 nM | 72.5 nM | 
Cc1c(C#N)cccc1[C@@H](C)Nc1nnc(C)c2cnc(N3CCN(C)[C@H](C)C3)cc12 [Example 1-12, 3-((R)-1-((7-((R)-3,4-dimethylpiperazin-1-yl)-4-methylpyrido[3,4-d]pyridazin-1-yl)amino)ethyl)-2-methylbenzonitrile] | 1.01 nM | 56.6 nM | 
CCN1CCN(c2cc3c(N[C@H](C)c4cccc(C#N)c4C)nnc(C)c3cn2)C[C@H]1C [Example 1-13, 3-((R)-1-((7-((R)-4-ethyl-3-methylpiperazin-1-yl)-4-methylpyrido[3,4-d]pyridazin-1-yl)amino)ethyl)-2-methylbenzonitrile] | 0.82 nM | 47.3 nM | 
